Data from patent US20060004037A1, “Novel tricyclic compounds and related methods of treatment” (TransForm Pharmaceuticals, Inc., priority 2004, published 2006).
Values after ≈ are worked out from the molar mass of the structure shown. Counter-ions that a name gives are not always drawn.

Assays:
[1] = system: Caco-2; test: Caco-2 permeability; assay type: in vitro ADME; conditions: free base form
[2] = Caco-2 permeability; assay type: in vitro ADME; conditions: human, Caco-2, free base form; for efflux ratio: read-out: B-A/A-B ratio
[3] = Hygroscopicity (VTI); assay type: physicochemical; conditions: free base form
[4] = pKa; assay type: physicochemical; conditions: free base form
[5] = Solubility in various solvents/solubilizing mixtures; assay type: physicochemical
Source text: The solubility of LSN 487355 in a variety of vehicles is illustrated in Table III.

[6] = Dynamic vapor sorption; assay type: physicochemical
[7] = Single excipient solubility screen; assay type: physicochemical
Source text: A single excipient screen was completed in an attempt to find an appropriate excipient for a liquid formulation of LSN 487355. […]

## Cc1onc2c1c(=O)n([C@H]1CCC[C@@H](CNC(=O)c3ccc(F)nc3)C1)c1cccc(Cl)c21 [LSN 487355]
[1]
  Permeability class: Borderline high
[2]
  Papp: 7.9 ×10⁻⁶ cm/s
  efflux ratio: 2.3
[3]
  Hygroscopicity (VTI): Non-hygroscopic
[4]
  pKa: 3.77
[5]; 4% DMSO in deionized water, kinetic from dmso stock, 4% DMSO, compound dissolved in solvent first, then deionized water added
  solubility: 2 µg/mL (≈ 0.00427 mM)
[5]; 5% N-methyl-2-pyrrolidone in deionized water, aqueous with cosolvent or surfactant or cyclodextrin, kinetic from dmso stock, 5% N-methyl-2-pyrrolidone, compound dissolved in solvent first, then deionized water added
  solubility: 4 µg/mL (≈ 0.00853 mM)
[5]; 10% DMSO in deionized water, aqueous with cosolvent or surfactant or cyclodextrin, kinetic from dmso stock, 10% DMSO, compound dissolved in solvent first, then deionized water added
  solubility: 4 µg/mL (≈ 0.00853 mM)
[5]; 10% N-methyl-2-pyrrolidone in deionized water, aqueous with cosolvent or surfactant or cyclodextrin, kinetic from dmso stock, 10% N-methyl-2-pyrrolidone, compound dissolved in solvent first, then deionized water added
  solubility: 30 µg/mL (≈ 0.064 mM)
[5]; Capmul PG8, oil or lipid
  solubility: 12000 to 15000 µg/mL (≈ 25.6 to 32 mM)
[5]; DMA, organic solvent or mixture
  solubility: 208000 to 416000 µg/mL (≈ 444 to 887 mM)
[5]; Ethanol, organic solvent or mixture
  solubility: 1400 µg/mL (≈ 2.99 mM)
[5]; Ethyl Oleate, oil or lipid
  solubility: < 2000 µg/mL
[5]; Ethyl acetate, organic solvent or mixture
  solubility: 3 µg/mL (≈ 0.0064 mM)
[5]; Glycofurol, organic solvent or mixture
  solubility: > 2000 µg/mL
[5]; Labrafac Hydro WL 219, oil or lipid
  solubility: > 2000 µg/mL
[5]; Labrafac Lipophile WL 1349, oil or lipid
  solubility: < 2000 µg/mL
[5]; Labrafil M1944CS, oil or lipid
  solubility: < 2000 µg/mL
[5]; Labrafil M2125CS, oil or lipid
  solubility: < 2000 µg/mL
[5]; Labrasol, oil or lipid
  solubility: 4000 to 5000 µg/mL (≈ 8.53 to 10.7 mM)
[5]; NMP, organic solvent or mixture
  solubility: > 563000 µg/mL
[5]; Olive oil, oil or lipid
  solubility: < 2000 µg/mL
[5]; PEG 300, organic solvent or mixture
  solubility: > 2000 µg/mL
[5]; Phosphal 50 PG, oil or lipid
  solubility: > 2000 µg/mL
[5]; Phosphal 53 MCT, oil or lipid
  solubility: > 2000 µg/mL
[5]; Propylene Glycol, organic solvent or mixture
  solubility: < 2000 µg/mL
[5]; Safflower oil, oil or lipid
  solubility: < 2000 µg/mL
[5]; Soybean oil, oil or lipid
  solubility: < 2000 µg/mL
[5]; organic solvent or mixture, DMSO, measured visually at about 50 mg/mL, all compound dissolved
  solubility: ≥ 51000 µg/mL
[5]; organic solvent or mixture, N-methyl-2-pyrrolidone, measured visually at about 50 mg/mL, all compound dissolved
  solubility: ≥ 52000 µg/mL

## Cc1onc2c1c(=O)n([C@H]1CCC[C@@H](NC(=O)[C@@H](O)c3ccc(F)nc3)C1)c1cccc(Cl)c21 [LSN 509207]
[1]
  Permeability class: Borderline high
[2]
  Papp: 7.4 ×10⁻⁶ cm/s
  efflux ratio: 2.7
[3]
  Hygroscopicity (VTI): Non-hygroscopic

## Cc1onc2c1c(=O)n([C@H]1CCC[C@@H](CNC(=O)c3ccc(F)nc3)C1)c1cccc(Cl)c21 [LSN 487355 phosphate salt]
[6]; dynamic vapor sorption
  Moisture sorption isotherm: significant moisture sorption isotherm
  Relative humidity at which deliquescence begins: 80-90 % RH
[6]; equilibrated under flowing nitrogen (0% RH)
  Crystallinity in dynamic vapor sorption: loss of crystallinity
[7]; oil or lipid, excipient labrasol (FIG. 13)
  solubility: ≥ 20000 µg/mL
[7]; organic solvent or mixture, excipient PEG-600 (FIG. 13)
  solubility: ≥ 20000 µg/mL
